Laboratory results taken from publication PMC11554305, “Functional identification of soluble uric acid as an endogenous inhibitor of CD38” (eLife, 2024).

How the values were obtained:
CD38 = target: T1, CD38 (Homo sapiens, UniProt P28907); test: Hydrolase activity of THP-1 cells; type: biochemical; settings: sUA 0–500 μM, Figure 1—figure supplement 1A
T1 construct: cells or tissues were directly homogenized in blank reaction buffer on ice; host or cells: THP-1
T1 sequence (P28907 1-300): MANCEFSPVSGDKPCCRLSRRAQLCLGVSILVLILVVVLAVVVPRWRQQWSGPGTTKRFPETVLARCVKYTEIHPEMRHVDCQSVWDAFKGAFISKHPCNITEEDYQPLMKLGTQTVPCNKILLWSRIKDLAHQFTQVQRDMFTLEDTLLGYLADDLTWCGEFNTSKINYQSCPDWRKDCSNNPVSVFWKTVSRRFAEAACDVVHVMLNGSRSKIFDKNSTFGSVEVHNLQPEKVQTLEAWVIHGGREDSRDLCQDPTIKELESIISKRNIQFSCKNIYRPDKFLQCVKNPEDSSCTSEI
Method: The hydrolase activity of CD38 was measured according to a previous report ([de Oliveira et al., 2018]) with minor modifications. CD38 hydrolase activity was measured using 50 μM ε-NAD^+ as a substrate in hydrolase reaction buffer (250 mM sucrose, 40 mM Tris-HCl, pH 7.4). Briefly, cells or tissues were directly homogenized in blank reaction buffer on ice, and recombinant hCD38 was diluted in blank reaction buffer for subsequent assays. The tissue homogenates were centrifuged to collect the supernatant for enzyme assays. The loading volume of enzyme was 4–30 μL, the total volume of the reaction system was 3 mL. To detect enzyme inhibition, except when specified, the ligands were directly dissolved in hydrolase reaction buffer before pH adjustment, after which, the pH was immediately adjusted to 7.4. All reaction buffers, with or without ligands, were freshly prepared before each assay. For measurement of hydrolase activity, 3 mL reaction buffer containing enzyme, ε-NAD^+, and ligands at indicated concentrations was maintained at 37°C with constant stirring.
The reaction buffer for hydrolase or cyclase assays was excited at 300 nm, and fluorescence emission was measured every second at 410 nm by Shimazu RF-6000 spectrofluorometer. Hydrolase or cyclase activity was calculated from the linear portion of the time course by fitting a linear function to the data points recorded within 5 min.

THP-1 cells = test: Intracellular NAD+ assay in THP-1 cells; type: cell-based, human; settings: sUA 0–10 mg/dL pre-incubation 2 hr, then stimulation 6 hr
Method: Naïve THP-1 cells were pre-incubated with sUA (0–10 mg/dL) in RPMI-1640 medium containing 1% FBS for 2 hr, then the cells were washed twice with sterile PBS and stimulated with MSU crystals, cLPS, zymosan, or ATP for 6 hr. Subsequently, the cells were washed twice with sterile PBS, and then a total of 100 μL 5% ice-cold PCA was used to extract NAD^+ from cells in each well and medium as mentioned above.
As mentioned above, samples (cells, tissues, blood, or reaction buffer) were treated with ice-cold PCA, after extraction and centrifugation, the collected supernatant was appropriately diluted in 5% ice-cold PCA when applicable, and then was vortexed for 30 s and centrifuged at 15,000 rpm, 4°C for 5 min. Afterward, 30 μL supernatant was added into 200 μL 5 mM ammonium formate containing internal standards at indicated concentrations. Then, all the samples were vortexed for 30 s and centrifuged at 15,000 rpm, 4°C for 5 min again, the final supernatant was used for subsequent measurement. All the samples after handling were immediately analyzed in this study without freezing and thawing.
(§1) The LC-MS/MS system consisted of a triple quadrupole LCMS-8050 (Shimadzu) and an LC-30A system (Shimadzu). […] NAD^+ and NMN were measured independently in this study, as their peaks were hardly separated within a short time.

recombinant hCD38 = target: T2, recombinant hCD38 (Homo sapiens, UniProt P28907); test: Metabolic assay of NAD+ (degradation by recombinant hCD38); type: biochemical; settings: sUA 100, 200 or 500 μM; NAD+ 200 μM; hCD38 20 ng/mL; Figure 3F
T2 construct: the commercial recombinant hCD38 without a transmembrane region was partially used in this study; purchased Sino Biological 10818-H08H
T2 sequence (P28907 43-300 limits assumed): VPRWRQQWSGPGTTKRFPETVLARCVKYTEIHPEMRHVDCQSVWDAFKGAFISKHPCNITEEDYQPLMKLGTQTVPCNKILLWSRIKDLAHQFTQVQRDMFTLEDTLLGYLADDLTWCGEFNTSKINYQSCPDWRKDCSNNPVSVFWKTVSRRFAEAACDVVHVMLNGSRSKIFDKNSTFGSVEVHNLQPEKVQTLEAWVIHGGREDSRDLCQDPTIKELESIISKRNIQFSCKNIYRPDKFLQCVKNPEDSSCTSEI
Method: NAD^+ degradation by recombinant hCD38 was detected in hydrolase reaction buffer. At first, sUA (100, 200, and 500 μM) or other ligands at 500 μM in hydrolase reaction buffer (250 mM sucrose, 40 mM Tris) was freshly prepared, then the pH was immediately adjusted to 7.4 by HCl. Recombinant hCD38 was added into the buffer of experimental groups at 20 ng/mL, then the buffer was maintained at 37°C. The substrate NAD^+ was dissolved in hydrolase reaction buffer (pH 7.4) at 10 mM, and the pH was further adjusted to 7.4. The reaction was started with the addition of NAD^+ in the buffer for each group (final concentration is 200 μM), including control group (recombinant hCD38 free). All the buffers were incubated at 37°C with constant stirring. […]
As mentioned above, samples (cells, tissues, blood, or reaction buffer) were treated with ice-cold PCA, after extraction and centrifugation, the collected supernatant was appropriately diluted in 5% ice-cold PCA when applicable, and then was vortexed for 30 s and centrifuged at 15,000 rpm, 4°C for 5 min. […] All the samples after handling were immediately analyzed in this study without freezing and thawing.
as §1

primed WT BMDMs = test: Canonical inflammasome assay, IL-1β release in primed BMDMs; type: cell-based, mouse
Method: Human IL-1β, mouse IL-1β, IL-6, IL-18, TNF-α, and CXCL1 levels were measured according to the protocols provided by the manufacturer. Serum samples were diluted before ELISA when applicable. In this study, all the samples were frozen after collection and thawed before ELISA.
WT and CD38 KO BMDMs were primed with 100 ng/mL ultrapure LPS for 4 hr. Subsequently, primed BMDMs were pre-incubated with or without sUA for 2 hr, the cells were then washed twice with sterile PBS and were stimulated with nigericin, MSU crystals, or cLPS in serum-free RPMI-1640 medium.
After stimulation, the culture medium was collected and centrifuged at 3000 rpm, 4°C for 5 min, the supernatant was collected and stored at –30°C until ELISA.

O=c1[nH]c(=O)c2[nH]c(=O)[nH]c2[nH]1 [sUA, uric acid]
Ki (CD38): 75.5 µM
Intracellular NAD+ (THP-1 cells): boosted intracellular NAD^+
NAD+ availability, degradation by recombinant hCD38 (recombinant hCD38): increased NAD^+ availability
Induction of IL-1β release by sUA itself (primed WT BMDMs; sUA 100, 200 and 500 μM, 6 hr): did not induce IL-1β release
Inflammasome activation (IL-1β release) (primed WT BMDMs; sUA 100 or 200 μM pre-incubation 2 hr): hardly suppressed inflammasome activation
